Literature values in patent US20190077874A1, “METHODS AND COMPOSITIONS FOR THE TREATMENT OF TUBEROUS SCLEROSIS” (National Tuberous Sclerosis Association, Inc., priority 2017, published 2019).

Key:
[1] = system: refractory partial-onset seizures; conditions: patients with refractory partial-onset seizures
TSC patients = conditions: previous antiepileptic drugs
[2] = system: infantile spasms in the setting of TSC
[3] = system: TSC patients with medically refractory epilepsy and SEGAs; conditions: case studies of TSC patients
[4] = most commonly hypertension, immune suppression and infection, electrolyte imbalance etc.
IL-1β = conditions: TSC mouse model
CXCL10 = conditions: TSC mouse model
TSC mouse model = conditions: Zhang et al.

For `C=CC(N)CCC(=O)O` (stereo not drawn) [VGB, vigabatrin], the “patients in whom treatment is ineffectual” value [1] is given as “more than 75%”, the “patients in whom the antiepileptic drug failed” value (TSC patients) is given as 66% and the “efficacy in treating infantile spasms” value [2] is given as “particularly effective”.
For `CO[C@H]1C[C@@H]2CC[C@@H](C)[C@@](O)(O2)C(=O)C(=O)N2CCCC[C@H]2C(=O)O[C@H]([C@H](C)C[C@@H]2CC[C@@H](OCCO)[C@H](OC)C2)CC(=O)[C@H](C)/C=C(\C)[C@@H](O)[C@@H](OC)C(=O)[C@H](C)C[C@H](C)/C=C/C=C/C=C/1C` [everolimus], the SEGA size [3] is listed as “dramatic reduction” and the seizure frequency [3] is listed as “dramatic reduction”.
In the case of `CC[C@@H](C(N)=O)N1CCCC1=O` [levetiracetam], the “patients in whom the antiepileptic drug failed” value (TSC patients) is given as 67%.
In the case of `CC1(C)O[C@@H]2[C@@H](CO[C@@]3(COS(N)(=O)=O)OC(C)(C)O[C@@H]23)O1` [topiramate], the “patients in whom the antiepileptic drug failed” value (TSC patients) is given as 58%.
In the case of “adrenocorticotropic hormone (SYSMEHFRWGKPVGKKRRPVKVYPNGAEDESAEAFPLEF; Corticotropin; UniProt P01189 138-176, looked up) [ACTH, mainstay therapy for the treatment of seizures in TSC patients]”, the “treated patients with adverse effects” value [4] is listed as “up to 85%”.
For epicatechin-3-gallate, the “increased production of IL-1β” value (IL-1β) is listed as “reverse the increased production”, the “increased production of CXCL10” value (CXCL10) is listed as “reverse the increased production” and the seizures (TSC mouse model) is listed as “reduced seizures”. For the same compound, the survival (TSC mouse model) was “improved survival”.
